# Data as given in US20170114060A1 (priority 2014, published 2017).
# Entries after “also recorded” stand apart in the source; their conditions may differ.
# Legend:
# CRAC/Orai1 channels = CRAC/Orai1 channels (Homo sapiens, UniProt Q96D31); format: cell-based
# Ebola VP40 (eVP40) VLPs = format: cell-based
# [1] = test system: Marburg VP40 (mVP40) VLPs; format: cell-based
# [2] = test system: Junin virus (Candid-1 strain); format: cell-based
# [3] = test system: vesicular stomatitis virus (VSV); format: cell-based
# VP40-APT/PY VLP budding = format: cell-based
# Influenza Virus A = format: cell-based
# HEK293T cells [4] = test system: HEK293T cells
# HEK293T cells [5] = test system: HEK293T cells; remark: listed apart in the source
# HIV-1 = format: cell-based
# [6] = test system: Ebola VP40 induced intracellular calcium increase; format: cell-based
# LASV = format: cell-based, Lassa fever virus
# JUNV = format: cell-based, Junin virus
# MARV = format: cell-based, Marburg virus
# EBOV = format: cell-based, Ebola virus
# [7] = test system: eVP40 GFP expressed in HEK cells; format: cell-based
# retrovirus = details: cited from earlier work
# CRAC/Orai1 channels, sequence (Q96D31 whole entry): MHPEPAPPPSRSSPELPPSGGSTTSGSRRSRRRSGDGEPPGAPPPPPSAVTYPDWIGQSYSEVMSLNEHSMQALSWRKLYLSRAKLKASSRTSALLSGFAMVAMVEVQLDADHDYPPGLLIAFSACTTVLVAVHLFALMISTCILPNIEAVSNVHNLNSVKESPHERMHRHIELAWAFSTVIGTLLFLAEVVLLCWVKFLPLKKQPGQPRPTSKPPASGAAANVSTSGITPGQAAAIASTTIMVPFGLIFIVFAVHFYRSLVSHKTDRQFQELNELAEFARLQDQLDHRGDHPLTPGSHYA
smiles,measurement,setting,value
"NCCOB(c1ccccc1)c1ccccc1 [2-APB, 2-aminoethoxydiphenylborate]",concentration that fully inhibited CRAC channels,CRAC/Orai1 channels,50 µM
same,inhibition of store-operated Ca2+ entry via CRAC/Orai channels,CRAC/Orai1 channels,block store operated Ca^2+ influx; also recorded: blocked; also recorded: blocks Ca^2+ entry following Tg stimulation without affecting its release from the ER; also recorded: inhibition of Ca^2+ entry via CRAC channels
same,effect on cellular eVP40 expression/accumulation,Ebola VP40 (eVP40) VLPs,neither 2-APB nor Synta66 inhibited cellular accumulation
same,inhibition of eVP40 VLP formation,Ebola VP40 (eVP40) VLPs,inhibited eVP40 and mVP40 VLP budding
same,effect on cellular mVP40 accumulation,[1],neither 2-APB nor Synta66 inhibited cellular accumulation
same,inhibition of mVP40 VLP budding,[1],inhibited eVP40 and mVP40 VLP budding
same,decrease in the number of foci formed by virions released from cells,[2],10 fold
same,reduction of live Junin virus (Candid-1) foci / budding,[2],a similar dose-dependent decrease in JUNV budding
same,effect on cellular expression of VSV M protein,[3],only a slight effect on cellular M protein expression; also recorded: little to no effect on cellular expression of VSV M protein
same,inhibition of live VSV budding / titers,[3],inhibited live VSV viral particle budding; also recorded: dose-dependent inhibition of VSV budding
same,sensitivity of Alix Bro1-V rescue of VLP production,VP40-APT/PY VLP budding,2-APB sensitive
same,viability of cells under conditions mimicking infection experiments,VeroE6 cells,without effect on the viability of cells
c1ccc(C(c2ccccc2)c2noc(C3CCNCC3)n2)cc1 [FC-2121],inhibition of store-operated Ca2+ entry via CRAC/Orai channels,CRAC/Orai1 channels,partial dose-dependent inhibition of Tg-induced calcium entry; also recorded: can block calcium influx into cells via Orai; also recorded: reduce Orai-mediated calcium entry
same,inhibition of eVP40 VLP formation,Ebola VP40 (eVP40) VLPs,a corresponding inhibition of VLP formation; also recorded: successful inhibition of Ebola VP40 VLP production
same,reduction of live Influenza Virus A budding,Influenza Virus A,reduce live Influenza Virus A budding
same,cell viability / cytotoxicity (MTT),HEK293T cells [4],without cell toxicity
same,cytotoxicity,HEK293T cells [5],not cytotoxic
same,cytotoxicity,MDCK cells,not cytotoxic
"Cc1c(CC(C(=O)O)c2ccccc2)nn(-c2ccccc2)c1-c1ccccc1 (stereo not drawn) [FC-2122, 3-(4-methyl-1,5-diphenyl-1H-pyrazol-3-yl)-2-phenylpropanoic acid]",inhibition of store-operated Ca2+ entry via CRAC/Orai channels,CRAC/Orai1 channels,partial dose-dependent inhibition of Tg-induced calcium entry; also recorded: inhibits Orai-mediated calcium entry; also recorded: can block calcium influx into cells via Orai
same,cellular eVP40 expression,Ebola VP40 (eVP40) VLPs,not different from mock treated cells
same,concentrations at which VP40 expression inhibited,Ebola VP40 (eVP40) VLPs,above 10 μM
same,inhibition of eVP40 VLP formation,Ebola VP40 (eVP40) VLPs,a corresponding inhibition of VLP formation; also recorded: decreased to a comparable extent as by 2-APB; also recorded: inhibits; also recorded: successful inhibition of Ebola VP40 VLP production
same,reduction of live Influenza Virus A budding,Influenza Virus A,reduce live Influenza Virus A budding
same,inhibition of budding of live HIV-1,HIV-1,did not inhibit budding of live HIV-1
same,cell viability / cytotoxicity (MTT),HEK293T cells [4],without cell toxicity
same,cytotoxicity,HEK293T cells [5],not cytotoxic
same,cytotoxicity,MDCK cells,not cytotoxic
"Cc1cc(CC(C(=O)O)c2ccc(Cl)cc2)nn1-c1ccc(Cl)cc1 (stereo not drawn) [FC-2399, 2-(4-Chloro-phenyl)-3-[1-(4-chloro-phenyl)-5-methyl-1H-pyrazol-3-yl]-propionic acid]",inhibition of store-operated Ca2+ entry via CRAC/Orai channels,CRAC/Orai1 channels,reduce Orai-mediated calcium entry
same,inhibition of live VSV budding / titers,[3],significantly reduced budding of live Vesicular Stomatitis Virus in vitro in a dose-dependent manner
same,reduction of live Influenza Virus A budding,Influenza Virus A,reduce live Influenza Virus A budding
same,inhibition of budding of live HIV-1,HIV-1,reduces budding of live HIV-1
"CC(=O)N[C@@H](CS)C(=O)O [NAC, N-acetyl cysteine]",block of Ebola VP40 induced intracellular calcium increase,[6],block the Ebola VP40 induced intracellular calcium increase
Cc1cc(Cc2cc(C)cc(C(C)(C)C)c2O)c(O)c(Cc2cc(C)cc(C(C)(C)C)c2O)c1 [NSC 62914],block of Ebola VP40 induced intracellular calcium increase,[6],block the Ebola VP40 induced intracellular calcium increase
"CC1=C(c2cnc(NC(=O)c3c(F)cccc3F)cn2)CN(c2ncc(C)s2)CC1 [R02959, 2,6-difluoro-N-{5-[4-methyl-1-(5-methyl-thiazol-2-yl)-1,2,5,6-tetrahydro-pyridin-3-yl]-pyrazin-2-yl}-benzamide]",inhibition of store-operated Ca2+ entry via CRAC/Orai channels,CRAC/Orai1 channels,blocks Ca^2+ entry following Tg stimulation without affecting its release from the ER
same,potency as inhibitor of Orai1 relative to 2-APB or Synta66,CRAC/Orai1 channels,~10 fold
same,inhibition of Ca2+ entry via CRAC channels,CRAC/Orai1 channels; 5 μM,inhibits Ca^2+ entry via CRAC channels
same,block of Ca2+ entry,CRAC/Orai1 channels; concentrations <5 μM,50-100 fold
same,effect on cellular eVP40 expression/accumulation,Ebola VP40 (eVP40) VLPs,without any effect on cellular VP40 expression
same,inhibition of eVP40 VLP formation,Ebola VP40 (eVP40) VLPs,dose dependent inhibition of eVLP formation
same,block of eVP40 production,Ebola VP40 (eVP40) VLPs; concentrations <5 μM,50-100 fold
"COc1ccc(OC)c(-c2ccc(NC(=O)c3ccncc3F)cc2)c1 [Synta66, N-(2′,5′-dimethoxy[1,1′-biphenyl]-4-yl)-3-fluoro-4-pyridinecarboxamide]",inhibition of store-operated Ca2+ entry via CRAC/Orai channels,CRAC/Orai1 channels,blocks Ca^2+ entry following Tg stimulation without affecting its release from the ER; also recorded: inhibition of Ca^2+ entry via CRAC channels
same,effect on cellular eVP40 expression/accumulation,Ebola VP40 (eVP40) VLPs,neither 2-APB nor Synta66 inhibited cellular accumulation
same,effect on cellular mVP40 accumulation,[1],neither 2-APB nor Synta66 inhibited cellular accumulation
same,cellular expression of JUNV glycoprotein (GP),[2],No effect
same,reduction of live Junin virus (Candid-1) foci / budding,[2],dose-dependent reduction in the number of Junin foci; also recorded: reduces the number of JUNV foci in a dose-dependent manner
same,effect on cellular expression of VSV M protein,[3],without affecting expression of VSV M
same,inhibition of live VSV budding / titers,[3],dose-dependent inhibition of VSV budding; also recorded: inhibited VSV titers
same,reduction in budding of live VSV,[3],dose-dependent reduction in budding of live Vesicular Stomatitis Virus
same,inhibition of live LASV budding and spread,LASV,steep dose-dependent inhibition; also recorded: dose-dependent reduction
same,inhibition of live JUNV budding and spread,JUNV,steep dose-dependent inhibition; also recorded: dose-dependent reduction
same,inhibition of live MARV budding and spread,MARV,steep dose-dependent inhibition; also recorded: dose-dependent reduction
same,inhibition of live EBOV budding and spread,EBOV,steep dose-dependent inhibition; also recorded: dose-dependent reduction
same,VP40-induced membrane protrusions / VLP structures at the plasma membrane,[7],not prevelant; also recorded: inhibits the formation of VP40-induced membrane protrusions; also recorded: inhibition of EBOV VP40 protrusions from the plasma membrane; also recorded: reduces Ebola VP40-mediated virus-like particle formation at the plasma membrane
same,VP40 expression and membrane localization,[7],no difference in membrane localization of eVP40; also recorded: no apparent effect on VP40 expression or membrane localization; also recorded: does not result in altered expression of Ebola VP40 (green) at the plasma membrane
Nc1ccc(C(=O)Nc2cccc(-c3nc(N4CCOCC4)c4oc5ncccc5c4n3)c2)cn1 [YM201636],inhibition of eVP40 VLP formation,Ebola VP40 (eVP40) VLPs,dose-dependent reduction of Ebola VP40 VLP production
same,retrovirus budding,retrovirus,inhibited retrovirus budding
C[C@H](CCC(=O)O)C[C@H](C)C[C@H](C)C(=O)/C=C(\O)[C@H](C)C[C@H](C)C/C=C/[C@@H](C)[C@@H](O)[C@@H](C)[C@@H](O)C[C@@H]1CC[C@@](C)([C@H]2CC[C@@](C)([C@@H](C)O)O2)O1 [ionomycin],rescue of VP40-APT/PY VLP budding mediated by the Bro1-V fragment of Alix,VP40-APT/PY VLP budding,did not enhance rescue
